# Laboratory results published in patent US7001900B2, “Azabicyclic compounds for the treatment of disease” (Pfizer Inc., priority 2002, dated 2006).
# Biological target: T1, chimeric α7-5HT3 ion channel (UniProt P23979+P36544, M226I/T225I)
# T1 construct: expressed in transfected cells
# Experiment: Cell-based FLIPR assay of agonist activity on the chimeric α7-5HT3 receptor (Calcium Green fluorescence, intracellular calcium)
# Settings: SH-EP1 cells expressing chimeric α7-5HT3 ion channel
# Text: The cDNA encoding the N-terminal 201 amino acids from the human α7 nAChR that contain the ligand binding domain of the ion channel was fused to the cDNA encoding the pore forming region of the mouse 5HT3 receptor as described by Eisele J L, et al., Chimacric nicotinic-serotonergic receptor combines distinct ligand binding and channel specificities, Nature (1993), December 2;366(6454):479–83, and modified by Groppi, et al., WO 00/73431. The chimeric α7–5HT3 ion channel was inserted into pGS 175 and pGS 179 which contain the resistance genes for G-418 and hygromycin B, respectively. […]
# To assay the activity of the α7–5HT3 ion channel, cells expressing the channel were plated into each well of either a 96 or 384 well dish (Corning #3614) and grown to confluence prior to assay. […] The activity of compounds on the chimeric α7–5HT3 ion channel was analyzed on FLIPR. […] Fluorescent emission was measured above 525 nanometers with an appropriate F-stop to maintain a maximal signal to noise ratio. Agonist activity of each compound was measured by directly adding the compound to cells expressing the chimeric α7-5HT3 ion channel and measuring the resulting increase in intracellular calcium that is caused by the agonist-induced activation of the chimeric ion channel. […]
# T1 sequence (P36544+P23979 fused P36544:T225I/P36544:M226I): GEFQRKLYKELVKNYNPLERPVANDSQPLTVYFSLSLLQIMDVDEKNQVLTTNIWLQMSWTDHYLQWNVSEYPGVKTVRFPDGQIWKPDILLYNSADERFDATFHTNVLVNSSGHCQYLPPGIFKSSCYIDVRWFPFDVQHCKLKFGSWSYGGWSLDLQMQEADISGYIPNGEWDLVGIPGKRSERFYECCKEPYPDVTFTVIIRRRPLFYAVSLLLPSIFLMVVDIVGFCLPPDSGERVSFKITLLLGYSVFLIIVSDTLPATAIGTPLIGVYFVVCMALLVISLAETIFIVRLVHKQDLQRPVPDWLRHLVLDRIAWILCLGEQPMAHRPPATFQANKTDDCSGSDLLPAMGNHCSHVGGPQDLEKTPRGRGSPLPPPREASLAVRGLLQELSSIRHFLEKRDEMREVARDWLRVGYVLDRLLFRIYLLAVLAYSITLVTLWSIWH
smiles,measurement,value
"Cl.O=C(N[C@H]1CN2CCC1CC2)c1ccc2cccc(O)c2n1 [Example 8, N-[(3R)-1-azabicyclo[2.2.2]oct-3-yl]-8-hydroxyquinoline-2-carboxamide hydrochloride]",EC50 (effective concentration needed to cause a 50% maximal increase in intracellular calcium),inactive
